Assay results reported in patent US20230357248A1, “PYRROLOPYRIMIDINE COMPOUND AS BTK INHIBITOR AND USE THEREOF” (MEDSHINE DISCOVERY INC., priority 2019, published 2023).

How the values were obtained:
[1] = Plasma protein binding (PPB) assay, C; format: in vitro ADME; conditions: cynomolgus monkey, dialysis 4 hr 37° C.
Description: (§1) Assay procedure: 995 μL of blank plasma of various genera were weighed, and 5 μL of assay compound working solution (400 μM) or warfarin working solution (400 μM) was added so that the final concentrations of the assay compound and warfarin in plasma sample were each 2 μM. The samples were mixed thoroughly. The final concentration of DMSO (the organic phase) was 0.5%. 50 μL of the plasma samples of the assay compound and warfarin were pipetted to a sample receiving plate (in triplicate), and the corresponding volume of corresponding blank plasma or buffer was added immediately, so that the final volume in each sample well was 100 μL, wherein the volume ratio of plasma:dialysis buffer was 1:1. 500 μL of stop solution was then added to these samples. These samples were used as T0 samples for determination of recovery and stability. […] All samples were subjected to protein precipitation, and then analyzed by LC/MS/MS. Bound rate and recovery rate of protein were calculated using the following formulae: % Unbound=100*F/T, % Bound=100−% Unbound, % Recovery=100*(F+T)/T0 (wherein F is the peak area ratio of the compound in the dialysate after 4 h of dialysis; T is the peak area ratio of the compound in the plasma after 4 h of dialysis; To is the peak area ratio of the compound in the plasma sample at time zero).

[2] = test system: TMD8 cells; experiment: BTK cell activity assay (CellTiter Glo); format: cell-based; conditions: Homo sapiens, Cell Titer Glo, read-out: Relative IC50
Description: 1. Cell Culture and Passage
The medium, trypsin and 1×PBS used in the cell passage process were preheated in a 37° C. water bath. The supernatant was aspirated.
1 mL of trypsin was added to rinse, and the rinse solution was aspirated. 1 mL of trypsin was added, respectively, and cells were digested at 37° C. until the cells fell off. 10 mL of culture medium was added and mixed well. The mixture was centrifuged at 1000 rpm for 5 min and the cells were resuspended in 10 mL of culture medium. 0.7 mL of cell suspension was pipetted into a counting cup and counted on ViCell XR to respectively obtain a cell density of 0.327 million/mL. 1.17 mL of cell suspension and culture medium were weighed, respectively, to dilute the cell suspension. According to the microplate layout diagram below, 100 μL of phosphate buffer was added to the peripheral wells of the 384-well microplate, and 40 μL of cell suspension was added to other wells, respectively. The cell plate was then cultured in an incubator.
2. Dosing • (1) Preparation of compound:
A 9 μL dilution of the compound to be assayed was added to a shallow-well plate for Pod (Labcyte, #LP-0200). The shallow-well plate was centrifuged at 2500 rpm for 30 s. • (2) The cell plate was removed from the incubator. • (3) According to the microplate layout diagram below, compounds were serially diluted 3-fold in Pod to obtain 10 concentrations. The diluted compounds were added to the cell plate at 100 nL, respectively, and then the cell plate was returned to the incubator for culture. • 3. At Day 0, 20 μL of CellTiter Glo was added to the plate with DMSO added, and the mixture was shaken in the dark for 10 minutes. The plate was read with Envision. • 4. At Day 5: CTG was added and the plate was read. • (1) After being cultured for 72 h, 20 μL of Cell Titer Glo was added to the cell plate, and the mixture was shaken in the dark for 10 minutes. • (2) The plate was read with Envision.
Assay Results • 1. Average value and standard deviation of 0% inhibition (DMSO well, MAX) and 100% inhibition (day 0, DMSO) in each group were calculated; • 2. […]

[3] = Plasma protein binding (PPB) assay, R; format: in vitro ADME; conditions: rat, dialysis 4 hr 37° C.
Description: as §1

[4] = Pharmacokinetic evaluation in SD rat (oral); format: in vivo; conditions: about 2 mg/kg
[5] = test system: xenograft tumor of human diffuse large B lymphoma TMD8; experiment: Xenograft tumor model of TMD8 in SCID mouse; format: in vivo
Description: Xenograft tumor model of TMD8 in SCID mouse:
Assay method: A tumor model of subcutaneously transplanted human diffuse large B lymphoma in mice was established. Tumor cells in logarithmic growth phase were collected, counted, and then resuspended in RPMI1640. The cell suspension was adjusted to a concentration of 4×10^7/mL, and mixed well with Matrigel (1:1). Tumor cells were inoculated subcutaneously on the right back of the mouse with a 1 mL syringe ([…]), 4×10^6 cells/mouse. When the animal tumor reached about 100-300 mm^3, the tumor-bearing mice were randomly divided into 6 groups according to the size of the tumor volume, with 6 mice in each group. On the day of the assay, the animals were administered the corresponding drugs according to the corresponding groups. The first group G1 was set as a negative control group, which was administered 10% NMP/60% PEG400/30% H2O by gavage alone. The second group G2 was set as a positive control group, which was given reference example 1 (compound 005-1) at a dose of 30 mg/kg. The third group G3 was given compound 4 at a dose of 30 mg/kg, once a day, for a total of 15 days.
During the assay, animal weight and tumor size were measured 3 times a week, and clinical symptoms of animals were observed and recorded every day. Each dosing was referenced to the most recent animal weight.
For tumor measurement, length (a) and width (b) were measured with digital vernier calipers, and the calculation formula for tumor volume (TV) was: TV=a×b^2/2.

[6] = Plasma protein binding (PPB) assay, M; format: in vitro ADME; conditions: mouse, dialysis 4 hr 37° C.
Description: as §1

[7] = TMD8 xenograft in SCID mouse, 30 mg/kg PO, QD × 15, 14th day

## CO[C@@H]1C[C@@H](CO)OC[C@@H]1Nc1ncnc2[nH]cc(C(=O)c3ccc(Oc4ccccc4)cc3Cl)c12 [Compound 4]
[1]
  fraction unbound at 4 h, 2 μM: 0.001
[2]
  IC50: 261 nM
[3]
  fraction unbound at 4 h, 2 μM: 0.002
[4]; AUCu = AUC0-inf * Unbound PPB (in vivo assay of PPB in rat)
  AUCu: 0.0078 µM·h
[4]; male, plasma
  AUC(0-inf): 3.89 µM·h
  Cmax: 587 nM
  bioavailability: 57.3%
  half-life: 2.33 h
[5]; 30 mg/kg once a day
  inhibitory effect on xenograft tumor of human diffuse large B lymphoma TMD8 in mouse (in words): a certain inhibitory effect
[5]; 5th day, 30 mg/kg once a day
  relative tumor proliferation rate T/C: 66.33%
[5]; 14th day, 30 mg/kg once a day
  relative tumor proliferation rate: 21.53%
  tumor volume inhibition rate TGI (%): 79.04%
[5]; [7]
  Tumor volume inhibition rate TGI: 79.04%
  relative tumor proliferation rate T/C: 21.53%
[6]
  fraction unbound at 4 h, 2 μM: 0.004
